Reference: patent publication US20250134874A1, “PHARMACEUTICAL FORMULATIONS COMPRISING 3-({[(4R)-7-{METHYL[4-(PROPAN-2-YL)PHENYL]AMINO}-3,4-DIHYDRO-2H-1-BENZOPYRAN-4-YL]METHYL}AMINO)PYRIDINE-4-CARBOXYLIC ACID” (TACHYON THERAPEUTICS, INC., priority 2021, published 2025)

Tested on: 301 cancer cell lines from different tumor types (OncoPanel; HD Biosciences)
Experiment: 2D cell viability inhibition assay (CellTiter-Glo) in cancer cell line panel
Type: cell-based
Set-up: key to AUC: AUC as fraction of the no-inhibition area (dose range × 0–100 % of control)
Details: for Emax: in %
Protocol: In a larger screening study, compound 1 was evaluated across a broad cancer cell line panel (OncoPanel; HD Biosciences) composed of 301 cancer cell lines from different tumor types.
2D cell viability inhibition assays were performed in multiwell plates seeded with cells from the panel. After seeding, the plates were cultured overnight in a humidified incubator at 37° C. to promote adherence. Assays were initiated in individual wells by adding either DMSO as a vehicle control, growth media as a blank, or serially diluted compound 1 (10 μM to 0.0005 μM with 1:3 serial dilution). Cultures were incubated for 168 hours after which the number of viable cells in each test well was assessed using the CellTiter-Glo® Luminescent Cell Viability Assay. Luminescence readouts were performed using an EnVision® Multilabel Reader and the compound 1 readouts were normalized to the DMSO control readouts, expressed as a percent of the control. Outliers were flagged out by visual inspection. Percent of control was plotted against the corresponding compound 1 concentration and the absolute IC50 value was determined using four-parameter logistic non-linear regression as the concentration where inhibition was 50% of the control. For maximum inhibition <50%, the absolute IC50 was reported as >10. In addition to EC50 and IC50, AUC was determined and was normalized to the area corresponding to theoretical no-inhibition (the rectangular area defined by the compound dose range and 0 to 100 in y). Emax was recorded as the minimum in y with the compound dose range. For those cell lines where Emax>40, EC50 was manually set to 10 μM. A hierarchical clustering algorithm based on Euclidean distance between the standardized input values and “Ward.D” method as implemented in R hclust function was used to visualize the compound 1 cellular potency data. The sensitive/moderate/resistant calls for each cell line was determined by visually inspecting the resulting clustering dendrogram. All the analyses were done in R Core Team.

Compound: CC(C)c1ccc(N(C)c2ccc3c(c2)OCC[C@H]3CNc2cnccc2C(=O)O)cc1 [Compound 1, 3-({[(4R)-7-{methyl[4-(propan-2-yl)phenyl]amino}-3,4-dihydro-2H-1-benzopyran-4-yl]methyl}amino)pyridine-4-carboxylic acid]
- AUC (143B cell line): 0.3582
- Emax (143B cell line): 2.196
- AUC (647V cell line): 0.3912
- Emax (647V cell line): 10.18
- AUC (5637 cell line): 0.4857
- EC50 (5637 cell line): 0.00224 µM
- IC50 (5637 cell line): 0.00611 µM
- Emax (5637 cell line): 33.01
- AUC (7860 cell line): 0.5049
- IC50 (168 h, HS688AT, skin, NS): > 10 µM
- IC50 (168 h, HS739T, breast, NS): > 10 µM
- IC50 (168 h, HS839T, skin, NS): > 10 µM
- IC50 (168 h, HS852T, skin, NS): > 10 µM
- IC50 (168 h, HUH28, biliary tract, NS): > 10 µM
- IC50 (168 h, KG1, haematopoietic and lymphoid tissue, acute myeloid leukaemia): > 10 µM
- IC50 (168 h, KURAMOCHI, ovary, undifferentiated carcinoma): > 10 µM
- IC50 (168 h, NMCG1, central nervous system, NS): > 10 µM
- IC50 (168 h, SKMEL31, skin, NS): > 10 µM
- IC50 (168 h, T24, urinary tract, transitional cell carcinoma): > 10 µM
- IC50 (168 h, TE1, oesophagus, squamous cell carcinoma): > 10 µM
- IC50 (168 h, TE8, oesophagus, squamous cell carcinoma): > 10 µM
- AUC (A101D cell line): 0.4689
- Emax (A101D cell line): 20.46
- AUC (A204, soft tissue, NS, 168 hours): 0.7136
- AUC (A375 cell line): 0.4405
- Emax (A375 cell line): 19.51
- AUC (A549 cell line): 0.573
- AUC (A2058 cell line): 0.5694
- AUC (A2780 cell line): 0.1811
- AUC (ACHN cell line): 0.453
- AUC (AGS cell line): 0.3536
- Emax (AGS cell line): 14.1129
- AUC (ASPC1 cell line): 0.5812
- AUC (AZ521 cell line): 0.2875
- AUC (BFTC905 cell line): 0.3989
- Emax (BFTC905 cell line): 13.74
- AUC (BICR18 cell line): 0.619
- EC50 (BICR18 cell line): 0.187 µM
- IC50 (BICR18 cell line): 0.194 µM
- AUC (BICR22 cell line): 0.6829
- IC50 (BICR22 cell line): > 10 µM
- AUC (BT20, breast, ductal carcinoma, 168 hours): 0.9117
- AUC (BT474, breast, ductal carcinoma, 168 hours): 0.7206
- AUC (BT549 cell line): 0.431
- Emax (BT549 cell line): 20.55
- AUC (BXPC3 cell line): 0.5738
- AUC (C2BBE1, large intestine, adenocarcinoma, 168 hours): 0.8303
- AUC (C32 cell line): 0.2532
- AUC (CAKI1 cell line): 0.5319
- Emax (CAKI1 cell line): 34.03
- AUC (CAL27, upper aerodigestive tract, squamous cell carcinoma, 168 hours): 0.8335
- AUC (CALU1, lung, squamous cell carcinoma, 168 hours): 1.217
- AUC (CALU3, lung, adenocarcinoma, 168 hours): 0.7277
- AUC (CALU6 cell line): 0.4595
- Emax (CALU6 cell line): 18.32
- AUC (CAOV3 cell line): 0.3908
- Emax (CAOV3 cell line): 19.3273
- AUC (CAPAN1 cell line): 0.6391
- AUC (CAPAN2, pancreas, ductal carcinoma, 168 hours): 0.8808
- AUC (CCFSTTG1, central nervous system, astrocytoma, 168 hours): 0.879
- AUC (CFPAC1 cell line): 0.5227
- Emax (CFPAC1 cell line): 29.22
- AUC (CHL1 cell line): 0.3493
- AUC (COLO205 cell line): 0.4833
- Emax (COLO205 cell line): 27.13
- AUC (COLO320HSR cell line): 0.2403
- AUC (COLO679 cell line): 0.502
- AUC (COLO680N cell line): 0.5311
- Emax (COLO680N cell line): 33.76
- AUC (COLO741 cell line): 0.4186
- Emax (COLO741 cell line): 18.78
- AUC (COLO829 cell line): 0.6557
- AUC (CORL279 cell line): 0.3155
- AUC (DAOY, central nervous system, NS, 168 hours): 0.9684
- AUC (DAUDI cell line): 0.5383
- Emax (DAUDI cell line): 25.4109
- AUC (DETROIT562 cell line): 0.5873
- Emax (DETROIT562 cell line): 36.51
- AUC (DLD1 cell line): 0.226
- AUC (DMS53, lung, small cell carcinoma, 168 hours): 0.7426
- AUC (DMS79 cell line): 0.3845
- AUC (DMS153 cell line): 0.6737
- AUC (DMS273 cell line): 0.4815
- AUC (DU145 cell line): 0.4324
- Emax (DU145 cell line): 18.16
- AUC (DV90 cell line): 0.3698
- Emax (DV90 cell line): 11.78
- AUC (ECGI10 cell line): 0.5683
- EC50 (ECGI10 cell line): ≥ 10 µM
- IC50 (ECGI10 cell line): 0.0224 µM
- AUC (FTC133 cell line): 0.4146
- Emax (FTC133 cell line): 22.3385
- AUC (G361, skin, NS, 168 hours): 1.044
- AUC (G401 cell line): 0.2508
- AUC (GAK cell line): 0.6649
- IC50 (GAK cell line): > 10 µM
- AUC (GI1 cell line): 0.6237
- AUC (GP2D cell line): 0.506
- EC50 (GP2d, GP2D cell line): 0.0206 µM
- IC50 (GP2d, GP2D cell line): 0.0262 µM
- AUC (GRANTA519 cell line): 0.4686
- Emax (GRANTA519 cell line): 17.91
- AUC (HCC38, breast, ductal carcinoma, 168 hours): 0.9864
- AUC (HCC70 cell line): 0.4135
- Emax (HCC70 cell line): 13.85
- AUC (HCC78 cell line): 0.5315
- AUC (HCC95 cell line): 0.4072
- AUC (HCC827, lung, adenocarcinoma, 168 hours): 0.8814
- AUC (HCC1143 cell line): 0.6906
- AUC (HCC1187 cell line): 0.465
- Emax (HCC1187 cell line): 34
- AUC (HCC1419, breast, ductal carcinoma, 168 hours): 0.7201
- AUC (HCC1428, breast, NS, 168 hours): 0.7818
